# Assay results reported in article PMC11849073, “Specific recognition mechanism of an antibody to sulfated tyrosine and its potential use in biological research” (The Journal of Biological Chemistry, 2025).
# “Also recorded” adds a separate entry of the source. Where no end group is shown, it is not given here. [ ]: non-standard residue; d: D form. sY = N[C@@H](Cc1ccc(OS(=O)(=O)O)cc1)C(=O)O
# B1: BA8 full-length IgG (recombinant, rabbit IgG Fc) (antibody, V domains shown)
# VH: QSLEESGGGLFKPTDTLTLTCTVSGFSLSSYSIRWVRQAPGNGLEWIGAIGSGGNAYYTSWAKSRSTITRNTNENTVTLKMTSLTVADTATYFCARGGINFGIWGPGTLVTVSS
# VL: AAVLTQTPSPVSAAVGSTVTINCQSSQSVYSKNWLSWFQQKPGQPPKQLIYSASTLDSGVPSRFSGSGSGTQFTLTISGVQCDDAATYYCQGTYGDASAFGGGTEVVVK
# Experiments:
# BA8 Fab [1] = assay: SPR analysis of sulfated, non-sulfated and partially sulfated CCR5 N-terminal peptides with BA8; assay type: binding, rabbit; details: for kon: SPR Biacore 8K, BA8 Fab immobilized on CM5 chip, PBS 0.005% Tween 20, global fitting; for kon / Kd / koff: partially sulfated peptide as analyte; for Kd / koff / binding of peptide to BA8 in SPR, in words: SPR, BA8 Fab immobilized; for binding of peptide to BA8 in SPR, in words: peptides 2 to 162 nM as analyte (statements of b30 and b31 cover SPR and ITC)
# Excerpt: To quantitatively evaluate the intermolecular interaction between BA8 and the sulfated N-terminal peptide of CCR5, we prepared a Fab fragment of BA8 as a recombinant protein (Fig. S2, A and B) and conducted kinetic interaction analysis using SPR. The Fab was immobilized on a sensor chip using amine coupling, and the synthesized sulfated and non-sulfated N-terminal peptides of CCR5 were used as the analytes.
# (§1) We prepared these partially sulfated peptides and analyzed their interactions with BA8 using SPR and ITC (Fig. 4, B and C, Tables 3 and 4). […] These findings indicate that sulfation at 7Tys is essential for BA8 recognition. […] Thus, the high specificity and affinity of BA8 for the sulfated CCR5 N-terminal peptide likely rely heavily on the sulfation at 7Tys and 8Tys. […] In other words, BA8 recognizes not only sulfation of the N-terminal peptide of CCR5, but it is also selective about the sulfation site.
# The bindings of the peptides to Fabs were analyzed using a Biacore 8K instrument (Cytiva). Each Fab was immobilized on the surface of a CM5 sensor chip (Cytiva) by the amine-coupling method according to the manufacturer’s instructions in the condition of pH 5.5. The immobilization level reached to about 3000 Response Unit (RU). PBS containing 0.005% Tween 20 was used as the running buffer. The kinetic data were obtained by injection of increasing concentrations of peptides into the sensor chip. The flow rate of the analyte were set to 30 μl/min. The data were analyzed using BIAevaluation software (Cytiva), and the binding affinity as well as kinetic parameters were calculated by a global fitting of the curves.
# BA8 Fab [2] = assay: ITC analysis of sulfated, non-sulfated and partially sulfated CCR5 N-terminal peptides with BA8; assay type: binding, rabbit; details: PBS; for Kd / ΔH: 10 μM BA8 Fab in cell, 100 μM peptide in syringe, 25 °C
# Excerpt: To determine the thermodynamic parameters accompanying the interaction, we performed an ITC analysis (Fig. 2B, Table 2).
# as §1
# The ITC experiments were performed using a MicroCal PEAQ-ITC (Malvern Panalytical, Malvern, UK). The BA8 Fab fragment antibody, sufficiently dialyzed in PBS, was adjusted to 10 μM for the cells, and the CCR5 N-terminal peptide, dissolved in the dialysate, was adjusted to 100 μM for the syringe. The first injection of 0.5 μl (omitted from the analysis) was followed by 19 injections of 2 μl with 120 s intervals at a constant temperature of 25 °C. The titration syringe was continuously stirred at 750 rpm.
# The baselines were smoothly adjusted for the step after each titration saturated and fitted as one set of sites binding in MicroCal PEAQ-ITC Analysis Software (Malvern Panalytical, Malvern, UK).
# BA8 Fab [3] = assay: DSF stabilizing effect of peptides on BA8; parameters: species or system rabbit; details: BA8 Fab before and after binding of peptide (solution after ITC)
# Experimental: To assess the effect of sulfated peptide binding on the thermal stability of BA8, we performed differential scanning fluorimetry (DSF) measurements (Fig. 2C) ([25]). The melting temperature (Tm) of BA8 forming a complex with the sulfated peptide was 75.6 °C, whereas the pre-binding Tm was 70.8 °C.
# The stabilization effect of the addition of these partially sulfated peptides on BA8 was evaluated using DSF measurements (Fig. S8).
# The DSF thermal stability measurements were performed using a CFX Real-Time PCR System (Bio-Rad). First, 1 μl of 100 × SYPRO Orange stain was diluted with 19 μl of 8.3 μM unbound-BA8 Fab or the solution remaining in the cell after ITC measurement. Next, fluorescence was scanned every minute to obtain melting curves of the solutions as they were heated at 1.0 °C/min. The change in the scanned relative fluorescence unit per unit time was recorded, and the temperature at its peak was considered to be the melting temperature (Tm) ([42]).
# [4] = tested on: YU2 (CCR5 tropic strain) strain in TZM-bl cells; assay: Pseudoviral assay (single-round viral infective assay) in TZM-bl cells; assay type: cell-based, HIV; details: 48 h post-infection, luciferase read-out, BA8 up to 50 μg/ml (approximately 350 nM)
# Experimental: Subsequently, we conducted a pseudoviral test using TZM-bl cells.
# The anti-HIV activity of BA8, isotype control antibody, and Maraviroc (Sigma-Aldrich) in a single-round viral infective assay against the YU2 (CCR5 tropic strain) strain in TZM-bl cells. At 48 h post-infection, cells were lysed, and relative light units were measured using a Steady-Glo luciferase assay system and GloMax Discover microplate reader (Promega).
# [5] = target: full-length CCR5-FLAG co-expressed with TPST2 in HEK293 cells (C2 cells), sulfated by TPST2 (UniProt P51681); assay: flow cytometry on cells; transfected HEK293 cells (C, C1, C2, C12) or TZM-bl cells fixed with 2% paraformaldehyde; BA8 IgG detected with goat anti-rabbit IgG Alexa 488; median fluorescence against BA8 concentration fitted with a sigmoid function
# Chain of full-length CCR5-FLAG co-expressed with TPST2 in HEK293 cells (C2 cells), sulfated by TPST2 (P51681 whole entry): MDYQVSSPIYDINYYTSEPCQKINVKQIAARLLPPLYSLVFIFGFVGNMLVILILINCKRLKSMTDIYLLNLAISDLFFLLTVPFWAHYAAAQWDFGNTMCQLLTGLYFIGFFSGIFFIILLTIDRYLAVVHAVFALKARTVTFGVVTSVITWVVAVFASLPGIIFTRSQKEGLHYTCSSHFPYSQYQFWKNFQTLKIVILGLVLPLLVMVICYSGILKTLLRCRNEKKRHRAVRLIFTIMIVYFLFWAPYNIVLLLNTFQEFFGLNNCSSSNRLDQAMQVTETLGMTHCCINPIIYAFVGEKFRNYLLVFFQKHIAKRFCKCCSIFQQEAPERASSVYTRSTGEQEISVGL
# [6] = target: full-length CCR5-FLAG co-expressed with TPST1 and TPST2 in HEK293 cells (C12 cells), sulfated by TPST2 (UniProt P51681); assay: as above
# Chain of full-length CCR5-FLAG co-expressed with TPST1 and TPST2 in HEK293 cells (C12 cells), sulfated by TPST2 (P51681 whole entry): as above
# [7] = target: endogenous CCR5 expressed on TZM-bl cells (human (endogenous in TZM-bl)) (UniProt P51681); assay: as above
# Chain of endogenous CCR5 expressed on TZM-bl cells (human (endogenous in TZM-bl)) (P51681 whole entry): as above
molecule,measurement,setting,value
"TYS3,7: partially sulfated CCR5 N-terminal peptide containing 3Tys and 7Tys (PI[sY]DIN[sY]YTSE; UniProt P51681 8-18, looked up, fragment)",kon,BA8 Fab [1],265000 mol/L/s
same,Kd,BA8 Fab [1],45 nM
same,koff,BA8 Fab [1],0.0119 s⁻¹
same,"binding of peptide to BA8 in SPR, in words",BA8 Fab [1],weak binding
same,"binding of peptide to BA8 in SPR, in words",BA8 Fab [1]; listed as TYS37,bound
same,Kd,BA8 Fab [2],7.65 nM
same,ΔH,BA8 Fab [2],-15.8 kcal/mol
same,ΔG,"BA8 Fab [2]; 10 μM BA8 Fab, 100 μM peptide",-11.1 kcal/mol
same,−TΔS,"BA8 Fab [2]; 10 μM BA8 Fab, 100 μM peptide",4.68 kcal/mol
same,"effect of the peptide on the thermal stability (Tm) of BA8, in words",BA8 Fab [3],"lower than those of TYS3,7,8"
same,"effect of the peptide on the thermal stability (Tm) of BA8, in words",BA8 Fab [3]; listed as TYS37,contribute to the stabilization of BA8
Maraviroc [reference compound],"inhibition of HIV infection, in words",[4],inhibited HIV infection; also recorded: concentration-dependent inhibition of viral infection
"TYS3: partially sulfated CCR5 N-terminal peptide containing 3Tys (PI[sY]DINYYTSE; UniProt P51681 8-18, looked up, fragment)","binding of peptide to BA8 in SPR, in words",BA8 Fab [1],no binding; also recorded: did not exhibit binding
same,"effect of the peptide on the thermal stability (Tm) of BA8, in words",BA8 Fab [3],did not change the thermal stability of BA8 at all
"sulfated peptide: CCR5 N-terminal peptide Pro8 to Ser18 with sulfated Tyr10, Tyr14, and Tyr15; fully sulfated (PI[sY]DIN[sY][sY]TSE; UniProt P51681 8-18, looked up, fragment)","binding of peptide to BA8 in SPR, in words",BA8 Fab [1],high binding affinity in the nanomolar range
same,"binding of peptide to BA8 in ITC, in words","BA8 Fab [2]; 10 μM BA8 Fab, 100 μM peptide",so high that it could not be accurately measured
"TYS3,8: partially sulfated CCR5 N-terminal peptide containing 3Tys and 8Tys (PI[sY]DINY[sY]TSE; UniProt P51681 8-18, looked up, fragment)","binding of peptide to BA8 in SPR, in words",BA8 Fab [1],did not exhibit binding
same,"binding of peptide to BA8 in SPR, in words",BA8 Fab [1]; listed as TYS38,no binding
same,"effect of the peptide on the thermal stability (Tm) of BA8, in words",BA8 Fab [3],did not change the thermal stability of BA8 at all
"TYS7: partially sulfated CCR5 N-terminal peptide containing 7Tys (PIYDIN[sY]YTSE; UniProt P51681 8-18, looked up, fragment)",kon,BA8 Fab [1],228000 mol/L/s
same,Kd,BA8 Fab [1],67.8 nM
same,koff,BA8 Fab [1],0.0154 s⁻¹
same,"binding of peptide to BA8 in SPR, in words",BA8 Fab [1],bound; also recorded: weak binding
same,Kd,BA8 Fab [2],13.4 nM
same,ΔH,BA8 Fab [2],-14.9 kcal/mol
same,ΔG,"BA8 Fab [2]; 10 μM BA8 Fab, 100 μM peptide",-10.7 kcal/mol
same,−TΔS,"BA8 Fab [2]; 10 μM BA8 Fab, 100 μM peptide",4.21 kcal/mol
same,"effect of the peptide on the thermal stability (Tm) of BA8, in words",BA8 Fab [3],"contribute to the stabilization of BA8; also recorded: lower than those of TYS3,7,8"
B1,EC50,[5],3.64 nM
same,EC50,[6],3.71 nM
same,EC50,[7],49 nM
